Assay: dissolution profile before and after storage
Assay type: physicochemical
Settings: during shelf life

- dissolution profile before and after storage: constant
SMILES: CCCCCCCCc1ccc(CCC(N)(CO)CO)cc1.Cl [polymorphic form B, fingolimod hydrochloride]
